{"source": "patent US6855353B2", "about": "“Method for producing antioxidant and prevention of cancer” (priority 2002, dated 2005)", "key": {"[1]": {"test_system": "GSH-Px", "experiment": "Effect of RES on GSH-Px activity in tissues after 30 days feeding", "format": "in vivo", "conditions": "0.2% RES solution as drinking water up to 30 days", "source_text": "Glutathion peroxidase (GSH-Px) is an important enzyme, which has a high activity in cancer tissues.\nTwenty animals were divided into two groups of ten each and fed with either normal drinking water (control group) or 0.2% of RES solution (experimental group); this defined feeding regimen was continued up to 30 days. At the end of the feeding regimen, the animals were sacrificed, and whole skin, small bowel, liver, and lung were removed and immediately placed in ice-cold 0.1 M phosphate buffer, pH 7.4. Tissues were cleaned properly, minced and homogenized in the same buffer, and a 100,000×g supernatant fraction was prepared as described earlier. GSH-Px and GSH-r activities were measured."}, "[2]": {"test_system": "SOD", "experiment": "Effect of RES on super-oxidation during reperfusion of ischemia heart: SOD", "design": "species or system rats", "description": "(§1) H2O2 in the body is cleared by catalase and glutathione peroxidase (GSH-Px) catalysis. In myocardium, catalase activity of GSH-Px was lower.\n(§2) In the present study we examined the effect of RES on super-oxidation during reperfusion of ischemia heart.\n(§3) Male rats (280 to 320 g body weight) of Spague-Dawley strain maintained on a standard diet were used in these experiments. The rats were lightly anesthetized with diethyl ether, the left femoral vein was exposed and heparin (200 IU) was administered intravenously. 1 minute after administration of heparin the heart was excised and placed in ice cool perfusion medium until contraction had ceased. The heart was then mounted on the perfusion apparatus.\n(§4) Langendorff perfusion for an initial 10 min. period, the perfusion was continued as a working preparation for an additional 30 min. The hearts were all electrically paced at between 265 and 275 beats/min during working perfusion.\n(§5) The perfusate was Krebs-Henseleit bicarbonate buffer gassed with 95% oxygen and 5% carbon dioxide. This perfusate contained 11 mM D-glucose during the Langendorff perfusion.\n(§6) Aortic pressure, heart rates, coronary flows and aortic outputs were monitored during perfusion. […] The perfusate of control group contained buffer only. At the end the frozen hears were store in liquid nitrogen until assayed for metabolic intermediates. […]"}, "[3]": {"test_system": "GSH-Px", "experiment": "Effect of RES on super-oxidation during reperfusion of ischemia heart: GSH-Px", "design": "species or system rats", "description": "as §1, §2, §3, §4, §5, §6"}, "[4]": {"test_system": "Lipoperoxides", "experiment": "Effect of RES on peroxidation (hepatic lipoperoxide content, CCl4-induced hepatic damage)", "format": "in vivo", "description": "The experiments were performed as previously described. Hepatic lipoperoxide content was determined as described by Uchiyama.\nIn the present study, the effect of RES on lipoperoxides was examined.\nIt is known that the pathogenesis of CCl4—induced hepatic damage involved reactive oxidant species increasing from the metabolism. The liver injure caused by CCl4 is due to the formation of a reactive toxic metabolite by the hepatic cytochrome P-450 system."}, "[5]": {"test_system": "Cytochrome P-450", "experiment": "Effect of RES on hepatic microsomal monooxygenases: cytochrome P-450", "format": "in vivo", "conditions": "rat liver microsomes", "description": "(§7) In the present study, the effect of RES on the activities of hepatic microsomal monooxygenases was examined.\n(§8) Microsomal preparations—the microsomes used were prepared from rat's liver. The liver was thoroughly perfused in situ with more than 200 ml of 0.9% NaCl solution. The liver was excised, and homogenized with 4 volumes of isotonic (1.15%) KCl solution in a Potter glass homogenizer. The homogenate was centrifuged at 12,000×g for 25 minutes in a refrigerated centrifuge, and the precipitate was discarded. The microsomes were sedimented by centrifugation at 78,000×g for 90 minutes in a Hitachi model 40P preparative ultracentrifuge. The firmly packed pellet of microsomes was resuspended in isotonic KCl solution with the Potter homogenizer and again centrifuged as above. The washed microsomes were finally suspended in isotonic KCl, usually at a concentration of 10 mg of protein per ml. The resultant microsomal suspensions were stored at 4° C. and used within 2 to 3 days. In these preparations isotonic KCl was employed, instead of the more usual 0.25 M sucrose, so as to minimize the adsorption of hemoglobin on microsomes.\n(§9) Cytochrome P-450, NADPH-cytochrome creductase, aminoyrine demethylase and benzpyrene hydroxylase determined as previously described. Other methods are as same as above section."}, "[6]": {"test_system": "NADPH-cytochrome Creductase", "experiment": "Effect of RES on hepatic microsomal monooxygenases: NADPH-cytochrome c reductase", "format": "in vivo", "conditions": "rat liver microsomes", "description": "as §7, §8, §9"}, "[7]": {"test_system": "Aminopyrine demethylase", "experiment": "Effect of RES on hepatic microsomal monooxygenases: aminopyrine demethylase", "format": "in vivo", "conditions": "rat liver microsomes", "description": "as §7, §8, §9"}, "[8]": {"test_system": "Benzpyrene hydroxylase", "experiment": "Effect of RES on hepatic microsomal monooxygenases: benzpyrene hydroxylase", "format": "in vivo", "conditions": "rat liver microsomes", "description": "as §7, §8, §9"}, "[9]": {"test_system": "bovine aortic smooth muscle cell modified LDL", "experiment": "Effect of RES on lower density lipoprotein oxidation (MDA)", "format": "cell-based", "conditions": "LDL + 100 μg RES/ml, 37° C., 24 h; x ± s"}, "[10]": {"test_system": "mouse epidermis", "experiment": "Rate of [3H] thymidine incorporation in normal and TPA-stimulated mouse epidermis", "format": "in vivo", "description": "It is known that tetradecanoyphorbol-13-acetate (TPA) is strong tumor promoter and TPA can remarkable increase [^3H] thymidine incorporation in mouse epidermis and then to induce Epidermis cancer.\nMice were treated with TPA and the rate of [^3H] thymidine incorporation was determined 20 hours later. Male mice (7-9 weeks old) used for experiments. Only mice showing no hair regrowth following shaving were used. Animals were injected intraperitoneally (i.p.) with TPA or […]. After 20 hours, mice were injected i.p. with 60 μCi of [^3H] thymidine (2 Ci/mmol) 20 minutes before sacrifice. Epidermal scrapings were prepared. Homogenized in distilled water at 4° C., and the macromolecules precipitated with 0.4 N trichloracetic acid (TCA). Following 6 washes with 0.2 N TCA at 4° C. and 2 washes with absolute ethanol at room temperature, the nucleic acids were hydrolyzed with 0.5 N TCA at 90° C. for 5 minutes. The hydrolysates (0.2 ml aliquots) were counted in a scintillation counter and assayed for DNA. Each value is the mean±range for three separately treated mice. Each counted aliquot (0.2 ml) contained approximately 10 μg of DNA."}, "[11]": {"test_system": "p53 gene in gastric cancer cells", "experiment": "Effect of RES on p53 allelic loss (PCR-SSCP)", "format": "cell-based", "description": "(§10) The gastric cancer cells and normal cells were cultured in RPMI 1640 medium supplement with 10% fetal bovine serum. All the exons of the p^53 gene were amplified by the polymease chain reaction (PCR) using specific oligonucleotide primers. The PCR products were subjected to single-strand conformation polymorphism (SSCP) analysis."}, "[12]": {"test_system": "17p in gastric cancer cells", "experiment": "Effect of RES on 17p allelic loss (PCR-SSCP)", "format": "cell-based", "description": "as §10"}, "[13]": {"test_system": "c-myb RNA", "experiment": "Inhibition of oncogene expression in ML-1 cells (northern blot): c-myb", "format": "cell-based, Human", "description": "(§11) Human myeloblastic leukemic cell (ML-1) had been described previously. Cells were maintained in suspension culture in RPMI 1640 medium supplemented with 7.5% heat-inactivated FBS. Cells growth and viability were assayed by hemocytometer using trypan blue dye exclusion.\n(§12) RNA was isolated by the CsCl gradient modification. RNA pellets were washed twice by reprecipitation in ethanol and quantitated by absorbency at […]. RNA analyzed by electrophoresis of 15 μg of RNA through 1.2% agarose formaldehyde gels followed by northern blot transfer to nitrocellulose.\n(§13) Single-standard uniformly labeled DNA probes were prepared. Probe of c-myc was a 1.7 Kb cla-Eco RI restriction fragment containing the 3′exon region of human c-myc and probe of c-myb was 1.0 Kb myb-specific Bam HI fragment. Probes for n-ras contained DNA fragments using a modification of the PCR technique. Probes for myb, myc and n-ras were isolated by electrolution. The isolated fragments were labeled to high specific activity with [α^32P]-dCTP (3000 ci/mmol). Prehybridization of the filter was performed. The hybridization mixer contained 50,000 cpm of probe. The probes were hybridized at 58° C. in 15 mM NaCl, […] sodium citrate for 3 hours. After hybridization, they were exposed to XAR-5 film. Oncogene expression was quantitated by densitometer scanning of the autoradiography."}, "[14]": {"test_system": "c-myc RNA", "experiment": "Inhibition of oncogene expression in ML-1 cells (northern blot): c-myc", "format": "cell-based, Human", "description": "as §11, §12, §13"}, "[15]": {"test_system": "n-ras RNA", "experiment": "Inhibition of oncogene expression in ML-1 cells (northern blot): n-ras", "format": "cell-based, Human", "description": "as §11, §12, §13"}, "[16]": {"test_system": "NNK-induced lung tumorigenesis", "experiment": "NNK-induced lung tumorigenesis", "format": "in vivo, mice", "conditions": "RES by injection 20 mg/kg daily; 10 μmol NNK i.p.; pulmonary adenomas counted after sixteen weeks", "description": "The capacity of tobacco-specific nitrosamine 4-(methylnitrosamino)-1-(3-pyridyl)-1-butanone (NNK) to induce tumor incidence was recognized several years ago. Every group had 20 mice. For treatment group, each mouse was gave RES by injection at dose of 20 mg/kg daily. For control group, each mouse was gave same volume of physiological saline. Three days later, mice were gave 10 μmol NNK (in 0.1 ml saline) by i.p. injection. Sixteen weeks after these treatments the mice were killed and pulmonary adenomas were counted. The statistical significance of bioassay data was determined by student's test."}, "[17]": {"conditions": "ischemia heart, perfusate with 0.05 mg of RES/ml"}, "[18]": {"conditions": "pre-perfusion with 4×10^−6 g of RES/ml"}, "[19]": {"conditions": "gastric cancer cells treated by RES"}, "[20]": {"conditions": "gastric cancer cells treated by RES vs no drug"}}}
{"smiles": "Oc1ccc(/C=C/c2cc(O)cc(O)c2)cc1", "note": "[RES, resveratol]", "values": [{"measurement": "GSH-Px activity, Liver", "setting": "[1]; liver", "result": "34 ± 50 n mol NADPH oxidized/mg protein/min"}, {"measurement": "GSH-Px activity, Lung", "setting": "[1]; lung", "result": "22 ± 3.5 n mol NADPH oxidized/mg protein/min"}, {"measurement": "GSH-Px activity, Skin", "setting": "[1]; skin", "result": "260 ± 30 n mol NADPH oxidized/mg protein/min"}, {"measurement": "SOD activity", "setting": "[2]; [17]", "result": "10.5 ± 1.2", "unit": "μg/protein"}, {"measurement": "SOD activity versus control group", "setting": "[2]; [18]", "result": "significantly higher"}, {"measurement": "GSH-Px", "setting": "[3]; [17]", "result": "18.9 ± 2.0", "unit": "μ/g.w"}, {"measurement": "GSH-Px activity versus control group", "setting": "[3]; [18]", "result": "significantly higher"}, {"measurement": "Lipoperoxides T/C, 1h", "setting": "[4]; 1h", "result": 87, "unit": "%"}, {"measurement": "Lipoperoxides, 1 h", "setting": "[4]; 1 h, CCl4-induced hepatic damage", "result": "0.65 ± 0.07", "unit": "mmol MDA/g liver protein"}, {"measurement": "Lipoperoxides T/C, 3h", "setting": "[4]; 3h", "result": 72, "unit": "%"}, {"measurement": "Lipoperoxides, 3 h", "setting": "[4]; 3 h, CCl4-induced hepatic damage", "result": "0.62 ± 0.069", "unit": "mmol MDA/g liver protein"}, {"measurement": "Lipoperoxides T/C, 6h", "setting": "[4]; 6h", "result": 55, "unit": "%"}, {"measurement": "Lipoperoxides, 6 h", "setting": "[4]; 6 h, CCl4-induced hepatic damage", "result": "0.60 ± 0.70", "unit": "mmol MDA/g liver protein"}, {"measurement": "Lipoperoxides T/C, 12h", "setting": "[4]; 12h", "result": 40, "unit": "%"}, {"measurement": "Lipoperoxides, 12 h", "setting": "[4]; 12 h, CCl4-induced hepatic damage", "result": "0.59 ± 0.60", "unit": "mmol MDA/g liver protein"}, {"measurement": "Lipoperoxides T/C, 24h", "setting": "[4]; 24h", "result": 22, "unit": "%"}, {"measurement": "Lipoperoxides, 24 h", "setting": "[4]; 24 h, CCl4-induced hepatic damage", "result": "0.58 ± 0.58", "unit": "mmol MDA/g liver protein"}, {"measurement": "Cytochrome P-450", "setting": "[5]", "result": "2.65 ± 0.35", "unit": "nmol/mg protein"}, {"measurement": "NADPH-cytochrome Creductase", "setting": "[6]", "result": "198.5 ± 20", "unit": "nmol/mg protein"}, {"measurement": "Aminopyrine demethylase", "setting": "[7]", "result": "170.0 ± 18", "unit": "nmol HCHO/mg protein"}, {"measurement": "Benzpyrene hydroxylase", "setting": "[8]", "result": "48.9 ± 5.8", "unit": "nmol/mg protein"}, {"measurement": "MDA", "setting": "[9]", "result": "2.75 ± 0.29", "unit": "nmol/mg protein"}, {"measurement": "Specific activity, [3H] thymidine incorporation, TPA", "setting": "[10]; TPA-stimulated mouse epidermis, 20 hours after TPA", "result": "33.0 ± 4.5", "unit": "cpm/μg DNA"}, {"measurement": "Specific activity, [3H] thymidine incorporation, Normal", "setting": "[10]; normal mouse epidermis", "result": "32.2 ± 4.0", "unit": "cpm/μg DNA"}, {"measurement": "Frequency of p53 allelic loss", "setting": "[11]; [19]", "result": 12, "unit": "%"}, {"measurement": "Inhibition T/C (p53 allelic loss)", "setting": "[11]; [20]", "result": 36, "unit": "%"}, {"measurement": "Frequency of 17p allelic loss", "setting": "[12]; [19]", "result": 18.8, "unit": "%"}, {"measurement": "Inhibition T/C (17p allelic loss)", "setting": "[12]; [20]", "result": 49, "unit": "%"}, {"measurement": "Inhibition (%) c-myb RNA", "setting": "[13]", "result": "25.6 ± 3.5", "unit": "%"}, {"measurement": "Inhibition (%) c-myc RNA", "setting": "[14]", "result": "30.1 ± 4.2", "unit": "%"}, {"measurement": "Inhibition (%) n-ras RNA", "setting": "[15]", "result": "35.7 ± 3.8", "unit": "%"}, {"measurement": "Tumor incidence", "setting": "[16]", "result": "28.5 ± 3.0", "unit": "%"}]}
